Measurements as given in US12251373B2, “Compounds and methods of treating retinal degeneration” (CASE WESTERN RESERVE UNIVERSITY, priority 2017, dated 2025).

What was measured:
[1] = target: T1, bovine opsin (Bos taurus, UniProt P02699); assay: Isorhodopsin pigment regeneration of opsin in ROS disc membranes (absorption spectroscopy); assay type: biochemical; details: for competition with 9-cis-retinal for isorhodopsin regeneration (absorption at 495 nm): with 5 μM 9-cis-retinal, simultaneously or sequentially
T1 construct: ROS membranes were isolated from bovine retinas under dim red light; from tissue; host or cells: bovine retina rod outer segment (ROS) membranes, bleached with hydroxylamine
T1 sequence (P02699 whole entry): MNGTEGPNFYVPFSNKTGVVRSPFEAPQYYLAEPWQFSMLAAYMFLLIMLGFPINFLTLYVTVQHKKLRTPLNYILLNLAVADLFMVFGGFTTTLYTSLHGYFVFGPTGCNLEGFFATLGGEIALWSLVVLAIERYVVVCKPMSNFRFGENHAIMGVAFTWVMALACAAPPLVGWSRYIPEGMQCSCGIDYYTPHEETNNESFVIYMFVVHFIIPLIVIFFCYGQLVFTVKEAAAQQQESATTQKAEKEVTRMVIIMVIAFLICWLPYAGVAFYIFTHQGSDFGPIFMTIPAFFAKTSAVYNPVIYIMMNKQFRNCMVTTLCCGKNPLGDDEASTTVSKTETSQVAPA
Experimental: ROS membranes were isolated from bovine retinas under dim red light. To remove membrane associated proteins, ROS membranes were washed with a hypotonic buffer composed of 5 mM bis-tris propane (BTP) and 1 mM EDTA, pH 7.5, followed by gentle homogenization with subsequent centrifugation at 25,000 g for 30 min. This procedure was repeated four times. The final membrane pellet was suspended in 10 mM sodium phosphate buffer, pH 7.0, and 50 mM hydroxylamine to a 3 mg mL^−1 concentration of rhodopsin, placed on ice and illuminated with a 150 Watt bulb for 30 min. Membranes were pelleted by centrifugation at 16,000 g for 5 min and then washed four times with 10 mM sodium phosphate buffer, pH 7.0, and 2% bovine serum albumin followed by 4 washes with 10 mM sodium phosphate buffer, pH 7.0, and 2 washes with 20 mM BTP, pH 7.5, and 100 mM NaCl. The concentration of opsin was measured with a UV-visible spectrophotometer and quantified using the absorption coefficient ε280 nm=81,200 M^−1 cm^−1.
ROS membranes containing opsin were suspended in buffer composed of 20 mM BTP, pH 7.5, and 100 mM NaCl at a final concentration of 2.5 μM. […] Membranes then were solubilized with 20 mM DDM for 10 min at RT and UV-visible spectra of these samples were measured. To follow the kinetics of isorhodopsin regeneration, opsin membranes were treated with 0, 20 or 60 μM YC-001 for 15 min at RT. […] UV-visible spectra of the samples were measured every 2 min until 2 h of reaction time at RT. Each condition was repeated three times. The time course of isorhodopsin regeneration was fitted by a second order exponential decay and apparent half-lives were obtained at the time when reaction reached half of the end-point product.
Alternatively, opsin incubated with the above ligands was purified by 1D4-immunoaffinity chromatography. […] After washing, opsin samples were eluted by addition of 1D4 peptide ([…]) (SEQ ID NO: 1) to the above buffer and their spectra were measured with a UV-visible spectrophotometer.

[2] = target: T2, rod opsin (Mus musculus, UniProt P15409); assay: cAMP quantification assay in NIH3T3-(WT-opsin/GFP) cells; assay type: cell-based
T2 construct: expressed in transfected cells
T2 sequence (P15409 whole entry): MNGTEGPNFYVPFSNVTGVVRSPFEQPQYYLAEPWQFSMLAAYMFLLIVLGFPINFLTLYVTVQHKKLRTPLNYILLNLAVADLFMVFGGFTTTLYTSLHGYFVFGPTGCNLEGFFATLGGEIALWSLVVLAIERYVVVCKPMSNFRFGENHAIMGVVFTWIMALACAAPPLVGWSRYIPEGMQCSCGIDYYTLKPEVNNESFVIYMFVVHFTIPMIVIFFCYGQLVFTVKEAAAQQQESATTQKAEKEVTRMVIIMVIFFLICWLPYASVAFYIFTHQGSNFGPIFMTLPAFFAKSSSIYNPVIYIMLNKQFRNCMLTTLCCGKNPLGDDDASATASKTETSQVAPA
Excerpt: Three NIH3T3 stable cell lines, NIH3T3-(WT-opsin/GFP), NIH3T3-(P23H-opsin/GFP), and NIH3T3-(GFP) were previously generated which stably express mouse WT opsin and GFP; P23H opsin and GFP; and only GFP, respectively. GFP is expressed separately from opsin in these cell lines. NIH3T3 cells were from ATCC. DNA constructs for generating these stable cell lines were confirmed by Sanger sequencing. Expression of GFP was confirmed by green fluorescence imaging, and expression of P23H and WT opsin were confirmed by immunoblots.
NIH3T3-(Opsin/GFP) and NIH3T3-(GFP) were plated in two 96-well plates at a density of 50,000 cells per well in 100 μl of DMEM medium containing 10% FBS and antibiotics. After 24 h, cells were washed with Krebs Ringer bicarbonate buffer containing glucose (KRBG), and incubated with KRBG buffer containing 100 μM cAMP specific phosphodiesterase inhibitor, Ro 20-1724 (Tocris, UK) at RT for 10 min. […] While one plate then was wrapped with aluminum foil, the second plate was exposed to regular room light. Both plates were kept in a cell culture incubator for 15 min at 37° C. in 5% CO2. Levels of accumulated cAMP were detected with the Catchpoint cAMP fluorescent assay kit (Molecular Devices, Sunnyvale, CA USA) and the fluorescence with excitation/emission at 530/590 nm was read with a Flexstation3 plate reader (Molecular Devices) as described in the manufacturer's protocol.

[3] = target: T3, human rod opsin C110Y (Homo sapiens, UniProt P08100, C110Y); assay: Cell surface immunostain for rhodopsin mutants in NIH3T3 cells; assay type: cell-based; details: YC-001 treatment
T3 construct: expressed in transfected cells; host or cells: NIH3T3, transfected with pcDNA3.1-hOpsin mutant
Experimental: (§1) Human rhodopsin cDNA was placed into the pcDNA3.1(+) vector (pcDNA3.1-hOpsin). Site directed mutagenesis was performed following the QuickChange II site-directed mutagenesis kit (Agilent Technologies Inc.). Primers for the following mutations were as follows: […]
(§2) DNA vectors with rhodopsin mutations were confirmed by Sanger sequencing. After NIH3T3 cells were transfected with pcDNA3.1-hOpsin or its mutants for 24 h, these cells were resuspended and seeded into a 96-well plate with an optic bottom (Corning). […] Each condition was repeated in three wells. The treated plate was covered in tin foil and incubated at 37° C. with 5% CO2 for 24 h. Cells were then immunostained with Alexa […] 488-conjugated B6-30 anti-rhodopsin antibody. Cells were not exposed to detergents so that cell membranes were kept intact and only rhodopsin on the cell surface was immunostained. Alexa 488 fluorescence was imaged by the ImageExpress (Molecular Devices) high-content imager with a 20× objective. Medicinal Chemistry of YC-001

[4] = target: T4, human rod opsin D190N (Homo sapiens, UniProt P08100, D190N); assay: as above; assay type: cell-based; details: YC-001 treatment
T4 construct: expressed in transfected cells; host or cells: NIH3T3, transfected with pcDNA3.1-hOpsin mutant
Experimental: as §1, §2

[5] = target: T5, human rod opsin G106R (Homo sapiens, UniProt P08100, G106R); assay: as above; assay type: cell-based; details: YC-001 treatment
T5 construct: expressed in transfected cells; host or cells: NIH3T3, transfected with pcDNA3.1-hOpsin mutant
Experimental: as §1, §2

[6] = target: T6, human rod opsin P267L (Homo sapiens, UniProt P08100, P267L); assay: as above; assay type: cell-based; details: YC-001 treatment
T6 construct: expressed in transfected cells; host or cells: NIH3T3, transfected with pcDNA3.1-hOpsin mutant
Experimental: as §1, §2

cAMP level upon light exposure ([2]; NIH3T3-(WT-opsin/GFP) cells, light) | fold increase in EC50 of 9-cis-retinal dose-response curve ([2]; with 40 μM YC-001 co-treatment vs 9-cis-retinal alone) [fold] | Compound | competition with 9-cis-retinal for isorhodopsin regeneration (absorption at 495 nm) [1] | total amount of regenerated isorhodopsin pigment at the end of the reaction ([1]; FIG. 4d) | kinetics of isorhodopsin pigment regeneration ([1]; YC-001 then 9-cis-retinal, FIG. 4d) | reversibility of interaction with opsin ([1]; after opsin/isorhodopsin purification) | cAMP levels, co-treated with 1 μM 9-cis-retinal under light ([2]; FIG. 5c) | EC50 ([2]; either in the dark or light, read-out: EC50 of dose-dependent increase in cAMP levels) [µM] | cell surface staining of mutant opsin [3] | cell surface staining of mutant opsin [4] | cell surface staining of mutant opsin [5] | cell surface staining of mutant opsin [6]
– | – | O=C(CCCCCN1C(=O)c2cccc3cccc(c23)C1=O)NO [Scriptaid, reference compound] | does not compete with 9-cis-retinal | – | – | – | – | – | – | – | – | –
significantly reduced cAMP level | 3 | CC1=C(/C=C/C(C)=C\C=C\C(C)=C\C=O)C(C)(C)CCC1 [9-cis-retinal, reference compound] | – | – | – | – | – | – | – | – | – | –
– | – | O=C1OCC(c2ccc(Cl)s2)=C1c1cccs1 [YC-001] | less isorhodopsin was generated | didn't affect the total amount | slowed down the kinetics of pigment regeneration | reversible | dose-dependent elevation in cAMP levels | 8.22 | not effective | increased significantly | increased significantly | increased significantly
